Primed or numbered codes have the meaning given here. Ends that are not written are not given here. PEG2′ = not defined here
Assays:
[1] = test system: proteolytic cleavage of Probe #102 (cathepsin L, CTSL); assay: protease inhibitor profiling of Probe #102 cleavage in NASH and healthy plasma; assay type: biochemical, mice; details: for effect on Probe #102 signal: NASH and healthy plasma
Experimental: For this experiment, all plasma samples were prepared individually and diluted 1/10e in PBS with inhibitor added directly to the samples. Inhibitor was prepared at 15× concentration to final. Substrates were diluted in DI water at 18 uM, such that the final concentration on the plate would be 6 uM. All samples were prepared such that their last dilution on the plate would not affect the desired final concentration. 10 ul of each individual sample was pipetted into their corresponding wells, and the plate was then spun down in the centrifuge at 1500 RPM for 30 seconds to coat the bottom of each well with the sample. 5 ul of the 18 uM substrate solution was pipetted into each well being used on a 384 well plate, and then the plate was spun down in the centrifuge at 1500 rpm for 30 seconds. The plate was placed immediately in the plate reader at 37° C. for a 30-minute-long fluorescence kinetic read at 485/535 extended gain.
To assess the proteolytic cleavage pattern of Probe #102, samples were tested using a pool of broad inhibitors for serine, cysteine, threonine, MMP and aspartic protease family members (broad inhibitor) to assess general protease activity, AEBSF for serine proteases, E64 for cysteine proteases, CTSi for broad cathepsin inhibition of cathepsins L, S, K and B, or specific inhibitors for cathepsin K (L00625), for cathepsin L (SID) or cathepsin B (CA074).

caspase activity = assay: ex vivo probe cleavage in plasma of Jo2 fulminant hepatitis mice; assay type: biochemical; details: mouse plasma 3 hours after Jo2 injection
Experimental: Fulminant hepatitis is induced after injection intraperitoneal of monoclonal antibody anti-CD95 (Jo2, BD biosciences, 4 ug/animal), and mouse plasma samples were collected 3 hours after Jo2 injection.

NASH-related proteases = assay: ex vivo fluorescent probe cleavage (RFU/min) in K2 EDTA plasma, NASH (CDAHFD) vs healthy (CD) mice; assay type: biochemical; details: n=10 samples and pooled plasma
Experimental: All animals were used in accordance with animal care guidelines. Plasma was obtained from these blood samples by centrifugation at 3,500 RPM for 20 min at 4° C. The plasma was stored at −80° C. until it was needed for experimental purposes.
Samples were mixed with protease substrates and quenchers/reporters in 96-well plates. The 96-well plates were read on a Biotech Synergy H1, using 465,535 excitation/emission settings.
Probes measuring cathepsin activity were 3-fold higher in protease cleavage kinetics in mice with NASH compared to healthy mice.
A single plasma sample was contacted with the probes for each predetermined protease to provide a multiplex assessment of protease activity in the sample.

[2] = test system: cathepsin and/or MMP protease activities; assay: probe cleavage in plasma of healthy, NASH regression and NASH progression mice; assay type: biochemical; details: K2 EDTA plasma at 20 weeks
Excerpt: Plasma samples were collected from all animals at 20 weeks.
The probes showing the most differentiation in NASH were linked to cathepsin and/or MMP protease activities.

Granzyme B = assay: probe cleavage in COVID positive and COVID negative swab samples; assay type: biochemical
[3] = test system: host response and SARS-COV2 proteases; assay: probe cleavage in K2 EDTA and Lithium Heparin plasma, COVID vs healthy; assay type: biochemical
[4] = test system: carboxylesterase 1, phospholipase A2 and lipoprotein lipase; assay: spiked recombinant enzymes in human plasma with resorufin oleate as substrate; assay type: biochemical
[5] = K2 EDTA and Lithium Heparin plasma sets

CN1CCN(c2nc(-c3ccc(C(=O)NC4(C(=O)NCC#N)CCCCC4)cc3)cs2)CC1 [Probe L006235]
effect on Probe #102 signal [1]: did not significantly decrease signal

Probe #8: Caspase centric probe (VDVAD; not fully specified; 5-FAM, CPQ2 quencher, PEG2, D-Lys-D-Lys-GC)
contrast between healthy and Jo2 samples (caspase activity): contrast that is specific and sensitive to the Jo2 model

Probe #492: probe whose fluorescence increase is ascribed to protease activity and NASH disease in mice plasma ({FAM}-GQRANSIRVTWG-{K(CPQ2)-PEG2′-dK-dK-Gly-Cys}; not fully specified; printed as (FAM)-GQRANSIRVTWG-K(CPQ2)-(PEG2)-DLys-DLys-GC)
what the measured rate of fluorescence increase is ascribed to (NASH-related proteases): can be ascribed to protease activity and to NASH disease | differentiation among healthy, regression and NASH plasma samples [2]: can differentiate

Probe #520: probe differentiating healthy, regression and NASH plasma samples (GKPISLISSG; not fully specified; 5FAM, K(CPQ2), PEG2-GC)
differentiation among healthy, regression and NASH plasma samples [2]: can differentiate

Probe #647: Caspase centric probe; signal measures the activity of protease Granzyme B (GAIEPDSGG; also: 5FAM (position not given here), Lys(CPQ2) (position not given here), PEG2, D-Lys-D-Lys, GC-NH2 (attachment not given here))
differentiation among healthy, regression and NASH plasma samples [2]: can differentiate | contrast between healthy and Jo2 samples (caspase activity): contrast that is specific and sensitive to the Jo2 model | number of active samples, COVID+ (Granzyme B; adjusted RFU across timepoints, COVID+): 7 samples | number of active samples, COVID- (Granzyme B; adjusted RFU across timepoints, COVID-): 1 samples | protease whose activity the probe signal measures (Granzyme B; inhibition experiments, healthy vs COVID samples): measures the activity of protease Granzyme B | differentiation between COVID+ and COVID- samples (Granzyme B; swab samples in saline): key differentiator

Probe #84: a Furin substrate (GRVKRGLAGK; also: 5-FAM, CPQ2 quencher, PEG2-kk-GC, places not given here)
differential cleavage between COVID and healthy samples [3, 5]: demonstrated contrast in both sets

Probe #409: the SARS CoV2 coronavirus substrate (SARS-COV2 3C protease) (GTSAVLQSGFRKGK; also: 5-FAM, CPQ2 quencher, PEG2-kk-GC, places not given here)
differential cleavage between COVID and healthy samples ([3]; K2 EDTA samples): modest contrast

CC(C)C[C@H](NC(=O)[C@H]1O[C@@H]1C(=O)O)C(=O)NCCCCN=C(N)N [Probe E64, E64]
effect on Probe #102 signal [1]: decreased NASH signal significantly

Probe #102: a CTSL sensing probe; fluorescent reporter and quencher peptide probe (GKPILFFRLKG; also: FAM (position not given here), K(CPQ2) quencher (position not given here), PEG2-kk-GC (attachment not given here))
what the measured rate of fluorescence increase is ascribed to (NASH-related proteases): can be ascribed to protease activity and to NASH disease | protease whose activity the probe responds to ([1]; inhibitor experiments FIG. 30D-F): specifically responds to the activity of cathepsin L (CTSL) | differentiation among healthy, regression and NASH plasma samples [2]: can differentiate

Resorufin oleate
suitability as substrate for enzyme detection [4]: promising for detection of broad range of enzymes

Probe #428: probe differentiating healthy, regression and NASH plasma samples ({FAM}-GDRRKKLTQG-{K(CPQ2)-PEG2′-dK-dK-Gly-Cys}; not fully specified; printed as (FAM)-GDRRKKLTQG-K(CPQ2)-(PEG2)-DLys-DLys-GC)
differentiation among healthy, regression and NASH plasma samples [2]: can differentiate

Probe #462: a MMP8 substrate (GKKAKRNALG; also: FAM (position not given here), K(CPQ2) (position not given here), PEG2, D-Lys-D-Lys-GC (attachment not given here))
differential cleavage between COVID and healthy samples [3, 5]: demonstrated contrast in both sets

Probe #18: a Neutrophil elastase substrate (GAAPVGK; also: 5-FAM, CPQ2 quencher, PEG2-kk-GC, places not given here)
differential cleavage between COVID and healthy samples [3, 5]: demonstrated contrast in both sets

CCCC(=O)O [butyrate]
suitability as substrate for enzyme detection [4]: promising for detection of broad range of enzymes

NCCc1ccc(S(=O)(=O)F)cc1 [AEBSF]
decrease of NASH signal ([1]; Probe #102, NASH plasma): 65% | decrease of healthy signal ([1]; Probe #102, healthy plasma): 60%

CCCNC(=O)[C@H]1O[C@@H]1C(=O)N[C@H](C(=O)N1CCC[C@H]1C(=O)O)[C@@H](C)CC [CA074]
effect on Probe #102 signal [1]: did not significantly decrease signal

Probe #96: probe differentiating healthy, regression and NASH plasma samples ({FAM}-GRPLALWESQG-{K(CPQ2)-PEG2′-dK-Gly-Cys}; not fully specified; printed as (FAM)-GRPLALWESQG-K(CPQ2)-PEG2-k-GC)
differentiation among healthy, regression and NASH plasma samples [2]: can differentiate
